Measured values: patent US20200069691A1, “HETEROCYCLIC COMPOUNDS AS HIV PROTEASE INHIBITORS” (Merck Sharp & Dohme Corp., priority 2016, published 2020)

Biological target: T1, wild-type HIV-1 protease (Human immunodeficiency virus type 1 group M subtype B, UniProt P04585)
T1 construct: Escherichia coli expressed wild-type HIV-1 protease protein
Assay: Assay for Inhibition of Microbial Expressed HIV Protease (peptide substrate cleavage, LC-MS/MS readout)
Assay type: biochemical
Conditions: E. coli expressed wild-type HIV-1 protease, mean of at least two independent experiments, read-out: HIV Pr Enzyme HIV1 PR IC50
Summary of the method: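 Cleavage of Val-Ser-Gln-Asn-(β-naphthyl)Ala-Pro-Ile-Val (400 μM) by recombinant HIV-1 protease ([…]) ran 1 h at 30 °C after a 30 min room-temperature inhibitor preincubation in 50 mM sodium acetate pH 5.5. Product peak areas by LC-MS/MS gave inhibition; values average at least two independent runs.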

Row | Compound | IC50 [nM]
1 | COC(=O)Nc1ncc2c(n1)CN(C(=O)c1cccc(CN3C(=N)NC(CC(C)C)(c4ccccc4)C3=O)c1)C2 (stereo not drawn) [Compound 188, methyl {6-[(3-{[2-imino-4-(2-methylpropyl)-5-oxo-4-phenylimidazolidin-1-yl]methyl}phenyl)carbonyl]-6,7-dihydro-5H-pyrrolo[3,4-d]pyrimidin-2-yl}carbamate] | 3.78
2 | COC(=O)Nc1ncc2c(n1)CN(C(=O)c1cccc(CN3C(=N)NC(c4ccc(F)cc4)(c4ccc(F)cc4)C3=O)c1)C2 [Compound 189, methyl {6-[(3-{[4,4-bis(4-fluorophenyl)-2-imino-5-oxoimidazolidin-1-yl]methyl}phenyl)carbonyl]-6,7-dihydro-5H-pyrrolo[3,4-d]pyrimidin-2-yl}carbamate] | 3.83
3 | COC(=O)Nc1ncc2c(n1)CN(C(=O)c1cccc(CN3C(=N)NC(c4ccccc4)(c4ccccc4)C3=O)c1)C2 [Compound 190, methyl [6-({3-[(2-imino-5-oxo-4,4-diphenylimidazolidin-1-yl)methyl]phenyl}carbonyl)-6,7-dihydro-5H-pyrrolo[3,4-d]pyrimidin-2-yl]carbamate] | 3.86
4 | CC(C)CCC1(c2ccccc2)NC(=N)N(Cc2cccc(C(=O)N3Cc4cnc(C#N)nc4C3)c2)C1=O (stereo not drawn) [Compound 191, 6-[(3-{[2-imino-4-(3-methylbutyl)-5-oxo-4-phenylimidazolidin-1-yl]methyl}phenyl)carbonyl]-6,7-dihydro-5H-pyrrolo[3,4-d]pyrimidine-2-carbonitrile] | 4.17
5 | N=C1NC(c2ccccc2)(c2ccc(-c3ccccc3)cc2)C(=O)N1Cc1cccc(C(=O)N2Cc3nccnc3C2)c1 (stereo not drawn) [Compound 192, 5-biphenyl-4-yl-3-[3-(5,7-dihydro-6H-pyrrolo[3,4-b]pyrazin-6-ylcarbonyl)benzyl]-2-imino-5-phenylimidazolidin-4-one] | 44.2
6 | CC(C)CCC1(c2ccccc2)NC(=N)N(Cc2cccc(C(=O)N3Cc4nccnc4C3)c2)C1=O (stereo not drawn) [Compound 193, 3-[3-(5,7-dihydro-6H-pyrrolo[3,4-b]pyrazin-6-ylcarbonyl)benzyl]-2-imino-5-(3-methylbutyl)-5-phenylimidazolidin-4-one] | 4.89
7 | N=C1NC(c2ccccc2)(c2ccccc2)C(=O)N1Cc1cccc(C(=O)N2Cc3cccc(F)c3C2)c1 [Compound 194, 3-{3-[(4-fluoro-1,3-dihydro-2H-isoindol-2-yl)carbonyl]benzyl}-2-imino-5,5-diphenylimidazolidin-4-one] | 35.7
8 | N=C1NC(c2ccc(F)cc2)(c2ccc(F)cc2)C(=O)N1Cc1cccc(C(=O)N2Cc3ccccc3C2)c1 [Compound 195, 3-[3-(1,3-dihydro-2H-isoindol-2-ylcarbonyl)benzyl]-5,5-bis(4-fluorophenyl)-2-iminoimidazolidin-4-one] | 56.9
9 | N=C1NC(c2ccc(F)cc2)(c2ccc(F)cc2)C(=O)N1Cc1cccc(C(=O)N2Cc3cccc(F)c3C2)c1 [Compound 196, 3-{3-[(4-fluoro-1,3-dihydro-2H-isoindol-2-yl)carbonyl]benzyl}-5,5-bis (4-fluorophenyl)-2-iminoimidazolidin-4-one] | 31.6
10 | N=C1NC(c2ccc(F)cc2)(c2ccc(F)cc2)C(=O)N1Cc1cccc(C(=O)N2Cc3cc(F)c(F)cc3C2)c1 [Compound 197, 3-{3-[(5,6-difluoro-l,3-dihydro-2H-isoindol-2-yl)carbonyl]benzyl}-5,5-bis(4-fluorophenyl)-2-iminoimidazolidin-4-one] | 5.25
11 | C[C@H](c1cccc(C(=O)N2Cc3cncnc3C2)c1)N1C(=N)NC(c2ccc(F)cc2)(c2ccc(F)cc2)C1=O [Compound 198, 3-{(1R)-1-[3-(5,7-dihydro-6H-pyrrolo[3,4-d]pyrimidin-6-ylcarbonyl)phenyl]ethyl}-5,5-bis(4-fluorophenyl)-2-iminoimidazolidin-4-one] | 5.36
12 | N#Cc1ncc2c(n1)CN(C(=O)c1cccc(CN3C(=N)NC(c4ccccc4)(c4ccccc4)C3=O)c1)C2 [Compound 199, 6-({3-[(2-imino-5-oxo-4,4-diphenylimidazolidin-1-yl)methyl]phenyl}carbonyl)-6,7-dihydro-5H-pyrrolo[3,4-d]pyrimidine-2-carbonitrile] | 5.59
